Measured values taken from ChEMBL document CHEMBL4715697, “Synthesis and biological activity of benzamide DNA minor groove binders” (2016).

Columns and labels:
Format in all cases: functional
Conditions in all cases: read-out: Activity
HL-60(TB) = experiment: Growth inhibition of human HL-60(TB) cells assessed as cell growth at 10 uM incubated for 48 hrs by sulforhodamine B assay relative to control
RPMI-8226 = experiment: Growth inhibition of human RPMI-8226 cells assessed as cell growth at 10 uM incubated for 48 hrs by sulforhodamine B assay relative to control
HOP-62 = experiment: Growth inhibition of human HOP-62 cells assessed as cell growth at 10 uM incubated for 48 hrs by sulforhodamine B assay relative to control
NCI-H226 = experiment: Growth inhibition of human NCI-H226 cells assessed as cell growth at 10 uM incubated for 48 hrs by sulforhodamine B assay relative to control
NCI-H322M = experiment: Growth inhibition of human NCI-H322M cells assessed as cell growth at 10 uM incubated for 48 hrs by sulforhodamine B assay relative to control
NCI-H522 = experiment: Growth inhibition of human NCI-H522 cells assessed as cell growth at 10 uM incubated for 48 hrs by sulforhodamine B assay relative to control
HCC 2998 = experiment: Growth inhibition of human HCC 2998 cells assessed as cell growth at 10 uM incubated for 48 hrs by sulforhodamine B assay relative to control
HCT-116 = experiment: Growth inhibition of human HCT-116 cells assessed as cell growth at 10 uM incubated for 48 hrs by sulforhodamine B assay relative to control
HCT-15 = experiment: Growth inhibition of human HCT-15 cells assessed as cell growth at 10 uM incubated for 48 hrs by sulforhodamine B assay relative to control
HT-29 = experiment: Growth inhibition of human HT-29 cells assessed as cell growth at 10 uM incubated for 48 hrs by sulforhodamine B assay relative to control
KM12 = experiment: Growth inhibition of human KM12 cells assessed as cell growth at 10 uM incubated for 48 hrs by sulforhodamine B assay relative to control
SF-268 = experiment: Growth inhibition of human SF-268 cells assessed as cell growth at 10 uM incubated for 48 hrs by sulforhodamine B assay relative to control
SF-539 = experiment: Growth inhibition of human SF-539 cells assessed as cell growth at 10 uM incubated for 48 hrs by sulforhodamine B assay relative to control
SNB-19 = experiment: Growth inhibition of human SNB-19 cells assessed as cell growth at 10 uM incubated for 48 hrs by sulforhodamine B assay relative to control
SNB-75 = experiment: Growth inhibition of human SNB-75 cells assessed as cell growth at 10 uM incubated for 48 hrs by sulforhodamine B assay relative to control
U-251 = experiment: Growth inhibition of human U-251 cells assessed as cell growth at 10 uM incubated for 48 hrs by sulforhodamine B assay relative to control
LOX IMVI = experiment: Growth inhibition of human LOX IMVI cells assessed as cell growth at 10 uM incubated for 48 hrs by sulforhodamine B assay relative to control
Malme-3M = experiment: Growth inhibition of human Malme-3M cells assessed as cell growth at 10 uM incubated for 48 hrs by sulforhodamine B assay relative to control
M14 = experiment: Growth inhibition of human M14 cells assessed as cell growth at 10 uM incubated for 48 hrs by sulforhodamine B assay relative to control
MDA-MB-435 = experiment: Growth inhibition of human MDA-MB-435 cells assessed as cell growth at 10 uM incubated for 48 hrs by sulforhodamine B assay relative to control
SK-MEL-2 = experiment: Growth inhibition of human SK-MEL-2 cells assessed as cell growth at 10 uM incubated for 48 hrs by sulforhodamine B assay relative to control
SK-MEL-28 = experiment: Growth inhibition of human SK-MEL-28 cells assessed as cell growth at 10 uM incubated for 48 hrs by sulforhodamine B assay relative to control
SK-MEL-5 = experiment: Growth inhibition of human SK-MEL-5 cells assessed as cell growth at 10 uM incubated for 48 hrs by sulforhodamine B assay relative to control
UACC-257 = experiment: Growth inhibition of human UACC-257 cells assessed as cell growth at 10 uM incubated for 48 hrs by sulforhodamine B assay relative to control
UACC-62 = experiment: Growth inhibition of human UACC-62 cells assessed as cell growth at 10 uM incubated for 48 hrs by sulforhodamine B assay relative to control
IGROV-1 = experiment: Growth inhibition of human IGROV-1 cells assessed as cell growth at 10 uM incubated for 48 hrs by sulforhodamine B assay relative to control
OVCAR-3 = experiment: Growth inhibition of human OVCAR-3 cells assessed as cell growth at 10 uM incubated for 48 hrs by sulforhodamine B assay relative to control
OVCAR-5 = experiment: Growth inhibition of human OVCAR-5 cells assessed as cell growth at 10 uM incubated for 48 hrs by sulforhodamine B assay relative to control
OVCAR-8 = experiment: Growth inhibition of human OVCAR-8 cells assessed as cell growth at 10 uM incubated for 48 hrs by sulforhodamine B assay relative to control
786-0 = experiment: Growth inhibition of human 786-0 cells assessed as cell growth at 10 uM incubated for 48 hrs by sulforhodamine B assay relative to control
ACHN = experiment: Growth inhibition of human ACHN cells assessed as cell growth at 10 uM incubated for 48 hrs by sulforhodamine B assay relative to control
CAKI-1 = experiment: Growth inhibition of human CAKI-1 cells assessed as cell growth at 10 uM incubated for 48 hrs by sulforhodamine B assay relative to control
SN12C = experiment: Growth inhibition of human SN12C cells assessed as cell growth at 10 uM incubated for 48 hrs by sulforhodamine B assay relative to control
TK-10 = experiment: Growth inhibition of human TK-10 cells assessed as cell growth at 10 uM incubated for 48 hrs by sulforhodamine B assay relative to control
UO-31 = experiment: Growth inhibition of human UO-31 cells assessed as cell growth at 10 uM incubated for 48 hrs by sulforhodamine B assay relative to control
PC-3 = experiment: Growth inhibition of human PC-3 cells assessed as cell growth at 10 uM incubated for 48 hrs by sulforhodamine B assay relative to control
MCF7 = experiment: Growth inhibition of human MCF7 cells assessed as cell growth at 10 uM incubated for 48 hrs by sulforhodamine B assay relative to control
BT-549 = experiment: Growth inhibition of human BT-549 cells assessed as cell growth at 10 uM incubated for 48 hrs by sulforhodamine B assay relative to control
T47D = experiment: Growth inhibition of human T47D cells assessed as cell growth at 10 uM incubated for 48 hrs by sulforhodamine B assay relative to control
MDA-MB-468 = experiment: Growth inhibition of human MDA-MB-468 cells assessed as cell growth at 10 uM incubated for 48 hrs by sulforhodamine B assay relative to control

| SMILES | growth at 10 µM (HL-60(TB)) [%] | growth at 10 µM (RPMI-8226) [%] | growth at 10 µM (HOP-62) [%] | growth at 10 µM (NCI-H226) [%] | growth at 10 µM (NCI-H322M) [%] | growth at 10 µM (NCI-H522) [%] | growth at 10 µM (HCC 2998) [%] | growth at 10 µM (HCT-116) [%] | growth at 10 µM (HCT-15) [%] | growth at 10 µM (HT-29) [%] | growth at 10 µM (KM12) [%] | growth at 10 µM (SF-268) [%] | growth at 10 µM (SF-539) [%] | growth at 10 µM (SNB-19) [%] | growth at 10 µM (SNB-75) [%] | growth at 10 µM (U-251) [%] | growth at 10 µM (LOX IMVI) [%] | growth at 10 µM (Malme-3M) [%] | growth at 10 µM (M14) [%] | growth at 10 µM (MDA-MB-435) [%] | further results |
| --- | --- | --- | --- | --- | --- | --- | --- | --- | --- | --- | --- | --- | --- | --- | --- | --- | --- | --- | --- | --- | --- |
| CC(=O)Nc1cc(CO[Si](C)(C)C(C)(C)C)cc(NC(=O)c2ccc(C(=O)Nc3cccc(NC(=O)CCCN(C)C)c3)cc2)c1 | 81 | 106 | 92 | 85 | 102 | 82 | 93 | 99 | 85 | 106 | 95 | 94 | 89 | 100 | 73 | 87 | 82 | 88 | 90 | 96 | growth at 10 µM (SK-MEL-2): 102%; growth at 10 µM (SK-MEL-28): 87%; growth at 10 µM (SK-MEL-5): 89%; growth at 10 µM (UACC-257): 87%; growth at 10 µM (UACC-62): 89%; growth at 10 µM (IGROV-1): 90%; growth at 10 µM (OVCAR-3): 104%; growth at 10 µM (OVCAR-5): 80%; growth at 10 µM (OVCAR-8): 93%; growth at 10 µM (786-0): 95%; growth at 10 µM (ACHN): 90%; growth at 10 µM (CAKI-1): 86%; growth at 10 µM (SN12C): 99%; growth at 10 µM (TK-10): 104%; growth at 10 µM (UO-31): 105%; growth at 10 µM (PC-3): 97%; growth at 10 µM (MCF7): 77%; growth at 10 µM (BT-549): 84%; growth at 10 µM (T47D): 73%; growth at 10 µM (MDA-MB-468): 89% |
| CC(=O)Nc1cc(CO)cc(NC(=O)c2ccccc2)c1 | 85.6 | 106 | 104 | 115 | 110 | 97.9 | 97.8 | 105 | 107 | 109 | 116 | 103 | 111 | 106 | 122 | 99.4 | 99 | 109 | 109 | 105 | growth at 10 µM (SK-MEL-2): 111%; growth at 10 µM (SK-MEL-28): 109%; growth at 10 µM (SK-MEL-5): 105%; growth at 10 µM (UACC-257): 104%; growth at 10 µM (UACC-62): 104%; growth at 10 µM (IGROV-1): 110%; growth at 10 µM (OVCAR-3): 118%; growth at 10 µM (OVCAR-5): 103%; growth at 10 µM (OVCAR-8): 102%; growth at 10 µM (786-0): 104%; growth at 10 µM (ACHN): 109%; growth at 10 µM (CAKI-1): 98.9%; growth at 10 µM (SN12C): 119%; growth at 10 µM (TK-10): 119%; growth at 10 µM (UO-31): 95.5%; growth at 10 µM (PC-3): 101%; growth at 10 µM (MCF7): 106%; growth at 10 µM (BT-549): 105%; growth at 10 µM (T47D): 103%; growth at 10 µM (MDA-MB-468): 106% |
